Experimental data taken from ChEMBL document CHEMBL1201862, “PubChem BioAssay data set” (2004).
Active and inactive are the calls of the source. No rule for the calls is given here.

Assay: viability of HCT116 lacking mutant beta-catenin – cell-based, human colon tumor, dose response (AID 1045);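 also: HCT116 colon tumor cells with beta catenin knocked out; cells exposed to compound for 60 hours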
Assay type: functional

For `COc1ccc(Nc2ccc3c(c2)=NC2(CCCCC2)[N+]=3[O-])cc1`, the EC50 was 1.89 µM (active).
